Here are results for ten compounds from patent US8614290B2, “Cancer imaging and treatment” (Technische Universitat Munchen, priority 2007, dated 2013).

Numbered stars: 1 amine (or outer) side, 2 acyl side, 3 side chain; on linkers, the order of the positions; unused ones are H or OH. Bridge positions count the residues as written; N and C are the ends. Square brackets hold non-standard residues; d marks the D form. Peptide text beside a SMILES is read from it. I, II: the chains in the order shown. Sebacoyl = O=C(CCCCCCCCC(=O)[*:2])[*:1]; 2Nal = N[C@@H](Cc1ccc2ccccc2c1)C(=O)O; Suberoyl = O=C(CCCCCCC(=O)[*:2])[*:1]; Adipoyl = O=C(CCCCC(=O)[*:2])[*:1]; Glutaryl = O=C(CCCC(=O)[*:2])[*:1]; dNMeOrn = CN[C@H](CCCN)C(=O)O

human CXCR4, sequence (P61073 whole entry): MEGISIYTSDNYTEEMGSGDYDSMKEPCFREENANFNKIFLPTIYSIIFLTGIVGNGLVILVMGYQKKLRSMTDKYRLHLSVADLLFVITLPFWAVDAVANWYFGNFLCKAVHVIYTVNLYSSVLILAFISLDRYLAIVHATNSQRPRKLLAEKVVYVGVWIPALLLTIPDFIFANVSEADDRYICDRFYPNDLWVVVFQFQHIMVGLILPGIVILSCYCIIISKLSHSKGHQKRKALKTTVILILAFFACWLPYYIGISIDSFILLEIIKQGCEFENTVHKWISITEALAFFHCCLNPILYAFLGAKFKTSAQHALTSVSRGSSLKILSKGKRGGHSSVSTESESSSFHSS

In one assay the target is human CXCR4 (Homo sapiens, UniProt P61073). Nature of the assay: Competitive receptor binding assay on Jurkat cells with 125I-CPCR4 as tracer. The arrangement: Jurkat cells that endogenously express the CXCR4 receptor; endogenous in cells; host or cells: Jurkat cells. The following applies: Table 10, dimers and monomers; read-out: IC50. As to the method:
For receptor binding assays cells were resuspended in PBS/0.2% BSA. A total of 200 μl of the suspension containing 400,000 Jurkat cells were incubated with 25 μl of the tracer solution (containing 3.1 kBq, approx. 0.1 nM) and 25 μl of the diluent or the competitor at different concentrations. […] After shaking for 2 h at room temperature, the incubation was terminated by centrifugation at 1300 rpm for 5 min. Cell pellets were washed once with cold PBS followed by a second centrifugation step. Cell bound radioactivity was determined by using a gamma counter. Experiments were repeated 2-3 times in triplicates. IC50 values of the compounds were calculated by nonlinear regression using GraphPad Prism (GraphPad Prism 4.0 Software, Inc., San Diego, Calif., USA). Each data point is the average of three determinations.
Broadly, the IC50 is the concentration at which inhibition is half-maximal. Take `CN1C(=O)[C@@H](Cc2ccc(O)cc2)NC(=O)CNC(=O)[C@H](Cc2ccc3ccccc3c2)NC(=O)[C@H](CCCNC(=N)N)NC(=O)[C@H]1CCCNC(=O)CNC(=O)C[C@H](NC(=O)CCCCCNC(=O)CN1CCN(CC(=O)O)CCN(CC(=O)O)CCN(CC(=O)O)CC1)C(=O)NCC(=O)NCCC[C@@H]1C(=O)N[C@@H](CCCNC(=N)N)C(=O)N[C@@H](Cc2ccc3ccccc3c2)C(=O)NCC(=O)N[C@H](Cc2ccc(O)cc2)C(=O)N1C` [NMe-D-Orn + Gly DOTAAhxAsp]: the IC50 is 38 nM.

Turning to `CN1C(=O)[C@@H](Cc2ccc(O)cc2)NC(=O)CNC(=O)[C@H](Cc2ccc3ccccc3c2)NC(=O)[C@H](CCCN=C(N)N)NC(=O)[C@H]1CCCNC(=O)CCCCCCCCC(=O)NCCC[C@@H]1C(=O)N[C@@H](CCCN=C(N)N)C(=O)N[C@@H](Cc2ccc3ccccc3c2)C(=O)NCC(=O)N[C@H](Cc2ccc(O)cc2)C(=O)N1C` [NMe-D-Orn n = 8] (I: cyclo([2Nal]G[dY][dNMeOrn]R) / II: cyclo([2Nal]G[dY][dNMeOrn]R); linker I:4-II:4 via Sebacoyl), the IC50 turned out to be 2.26 nM.

As to `CN1C(=O)[C@@H](Cc2ccc(O)cc2)NC(=O)CNC(=O)[C@H](Cc2ccc3ccccc3c2)NC(=O)[C@H](CCCN=C(N)N)NC(=O)[C@H]1CCCNC(=O)CNC(=O)CC(=O)NCC(=O)NCCC[C@@H]1C(=O)N[C@@H](CCCN=C(N)N)C(=O)N[C@@H](Cc2ccc3ccccc3c2)C(=O)NCC(=O)N[C@H](Cc2ccc(O)cc2)C(=O)N1C` [NMe-D-Orn + Gly n = 1], the IC50 came out at 5.48 nM. Same read-out and setting: the value for `CN1C(=O)[C@@H](Cc2ccc(O)cc2)NC(=O)CNC(=O)[C@H](Cc2ccc3ccccc3c2)NC(=O)[C@H](CCCNC(=N)N)NC(=O)[C@H]1CCCNC(=O)C[C@H](NC(=O)CCCCCNC(=O)CN1CCN(CC(=O)O)CCN(CC(=O)O)CCN(CC(=O)O)CC1)C(=O)NCCC[C@@H]1C(=O)N[C@@H](CCCNC(=N)N)C(=O)N[C@@H](Cc2ccc3ccccc3c2)C(=O)NCC(=O)N[C@H](Cc2ccc(O)cc2)C(=O)N1C` [NMe-D-Orn InDOTAAhxAsp] was 37.9 nM; that for `N=C(N)NCCC[C@@H]1NC(=O)[C@H](CCCNC(=O)CON=CCCCC=NOCC(=O)NCCC[C@@H]2NC(=O)[C@@H](Cc3ccc(O)cc3)NC(=O)CNC(=O)[C@H](Cc3ccc4ccccc4c3)NC(=O)[C@H](CCCNC(=N)N)NC2=O)NC(=O)[C@@H](Cc2ccc(O)cc2)NC(=O)CNC(=O)[C@H](Cc2ccc3ccccc3c2)NC1=O` [Code A22, glutaric aldehyde-(cyclo[D-Tyr-Orn(amineoxyacetyl)-Arg-2-Nal-Gly])2] was 57.9 nM; that for `CN1C(=O)[C@@H](Cc2ccc(O)cc2)NC(=O)CNC(=O)[C@H](Cc2ccc3ccccc3c2)NC(=O)[C@H](CCCN=C(N)N)NC(=O)[C@H]1CCCNC(=O)CCCCC(=O)NCCC[C@@H]1C(=O)N[C@@H](CCCN=C(N)N)C(=O)N[C@@H](Cc2ccc3ccccc3c2)C(=O)NCC(=O)N[C@H](Cc2ccc(O)cc2)C(=O)N1C` [NMe-D-Orn n = 4] (I: cyclo([2Nal]G[dY][dNMeOrn]R) / II: cyclo([2Nal]G[dY][dNMeOrn]R); linker I:4-II:4 via Adipoyl) was 3.65 nM. Same read-out and setting: the value for `CN1C(=O)[C@@H](Cc2ccc(O)cc2)NC(=O)CNC(=O)[C@H](Cc2ccc3ccccc3c2)NC(=O)[C@H](CCCN=C(N)N)NC(=O)[C@H]1CCCNC(=O)CNC(=O)CC(CC(=O)NCC(=O)NCCC[C@@H]1C(=O)N[C@@H](CCCN=C(N)N)C(=O)N[C@@H](Cc2ccc3ccccc3c2)C(=O)NCC(=O)N[C@H](Cc2ccc(O)cc2)C(=O)N1C)NC(=O)CCCCCNC(=O)CN1CCN(CC(=O)O)CCN(CC(=O)O)CCN(CC(=O)O)CC1` (single isomer, unassigned) [NMe-D-Orn + Gly DOTAAhxbetaAsp] was 12.3 nM.

The assay is the same for the next values; noted with them: read-out: IC50 (affinity).
As for `CN1C(=O)[C@@H](Cc2ccc(O)cc2)NC(=O)CNC(=O)[C@H](Cc2ccc3ccccc3c2)NC(=O)[C@H](CCCNC(=N)N)NC(=O)[C@H]1CCCNC(=O)CCCC(=O)NCCC[C@@H]1C(=O)N[C@@H](CCCNC(=N)N)C(=O)N[C@@H](Cc2ccc3ccccc3c2)C(=O)NCC(=O)N[C@H](Cc2ccc(O)cc2)C(=O)N1C` [NMe-D-Orn n = 3] (I: cyclo([2Nal]G[dY][dNMeOrn]R) / II: cyclo([2Nal]G[dY][dNMeOrn]R); linker I:4-II:4 via Glutaryl), the IC50 is 4.28 ± 2.3 nM. Same read-out and setting: as for `CN1C(=O)[C@@H](Cc2ccc(O)cc2)NC(=O)CNC(=O)[C@H](Cc2ccc3ccccc3c2)NC(=O)[C@H](CCCN=C(N)N)NC(=O)[C@H]1CCCNC(=O)CCCCCCCCC(=O)NCCC[C@@H]1C(=O)N[C@@H](CCCN=C(N)N)C(=O)N[C@@H](Cc2ccc3ccccc3c2)C(=O)NCC(=O)N[C@H](Cc2ccc(O)cc2)C(=O)N1C` [NMe-D-Orn n = 8] (I: cyclo([2Nal]G[dY][dNMeOrn]R) / II: cyclo([2Nal]G[dY][dNMeOrn]R); linker I:4-II:4 via Sebacoyl), the figure is 2.12 ± 0.9 nM; as for `CN1C(=O)[C@@H](Cc2ccc(O)cc2)NC(=O)CNC(=O)[C@H](Cc2ccc3ccccc3c2)NC(=O)[C@H](CCCNC(=N)N)NC(=O)[C@H]1CCCNC(=O)CCCCCCCCCCCC(=O)NCCC[C@@H]1C(=O)N[C@@H](CCCNC(=N)N)C(=O)N[C@@H](Cc2ccc3ccccc3c2)C(=O)NCC(=O)N[C@H](Cc2ccc(O)cc2)C(=O)N1C` [NMe-D-Orn n = 11], 11.1 ± 3.4 nM; as for `CN1C(=O)[C@@H](Cc2ccc(O)cc2)NC(=O)CNC(=O)[C@H](Cc2ccc3ccccc3c2)NC(=O)[C@H](CCCNC(=N)N)NC(=O)[C@H]1CCCNC(=O)CCCCCCC(=O)NCCC[C@@H]1C(=O)N[C@@H](CCCNC(=N)N)C(=O)N[C@@H](Cc2ccc3ccccc3c2)C(=O)NCC(=O)N[C@H](Cc2ccc(O)cc2)C(=O)N1C` [NMe-D-Orn n = 6] (I: cyclo([2Nal]G[dY][dNMeOrn]R) / II: cyclo([2Nal]G[dY][dNMeOrn]R); linker I:4-II:4 via Suberoyl), 2.51 ± 0.7 nM. As to `N=C(N)NCCC[C@@H]1NC(=O)[C@H](CCCNC(=O)CON=CCCCC=NOCC(=O)NCCC[C@@H]2NC(=O)[C@@H](Cc3ccc(O)cc3)NC(=O)CNC(=O)[C@H](Cc3ccc4ccccc4c3)NC(=O)[C@H](CCCNC(=N)N)NC2=O)NC(=O)[C@@H](Cc2ccc(O)cc2)NC(=O)CNC(=O)[C@H](Cc2ccc3ccccc3c2)NC1=O` [Code A22, glutaric aldehyde-(cyclo[D-Tyr-Orn(amineoxyacetyl)-Arg-2-Nal-Gly])2], the IC50 was 58 ± 4.2 nM. On to `CN1C(=O)[C@@H](Cc2ccc(O)cc2)NC(=O)CNC(=O)[C@H](Cc2ccc3ccccc3c2)NC(=O)[C@H](CCCN=C(N)N)NC(=O)[C@H]1CCCNC(=O)CCCCC(=O)NCCC[C@@H]1C(=O)N[C@@H](CCCN=C(N)N)C(=O)N[C@@H](Cc2ccc3ccccc3c2)C(=O)NCC(=O)N[C@H](Cc2ccc(O)cc2)C(=O)N1C` [NMe-D-Orn n = 4] (I: cyclo([2Nal]G[dY][dNMeOrn]R) / II: cyclo([2Nal]G[dY][dNMeOrn]R); linker I:4-II:4 via Adipoyl), for which the IC50 stood at 4.42 nM.
